Here are results for 3 molecules from patent US7601852B2, “Macrocyclic kinase inhibitors” (Kosan Biosciences Incorporated, priority 2006, dated 2009).

Test [1] deals with ERK2 (Homo sapiens, UniProt P28482). The test is described as follows: ERK2 Binding. Particulars: for kinact: read-out: ERK2 Binding Kinact. The source says: (§1) The biological activity of compounds III and IV is compared against that of the natural product hypothemycin in Table A. Inhibitory concentrations against three cancer cell lines is provided. COLO829 B is a human melanoma cancer cell line having a B-Raf V600E mutation. HT29 is a human colon cancer cell line also having a B-Raf V600E mutation. SKOV3 is a human […] cancer cell line having wild-type B-Raf. Additionally, Ki and Kinact for ERK2 are provided.

For test [2], the system named is HT29 (B-Raf V600E) human colon cancer cell line. The test is described as follows: Inhibitory concentration against HT29 cancer cell line. The test is classed as cell-based.
Text: as §1

For test [3], the system named is SKOV3 (wild-type B-Raf) human breast cancer cell line. The test is described as follows: Inhibitory concentration against SKOV3 cancer cell line. The test is classed as cell-based.
Text: as §1

In test [4] the test system is COLO829 (B-Raf V600E) human melanoma cancer cell line. The test is described as follows: Inhibitory concentration against COLO829 cancer cell line. The test is classed as cell-based.
Text: as §1

For test [5], the system named is panel of 124 kinases. The conditions noted are these: cited from earlier work.
The mark [6] stands for this setting: HT-29, HT29 human colon cancer cell line, B-Raf V600E, read-out: Inhibitory Concentration (IC50) HT29 (B-Raf V600E).
[7] abbreviates: SK-OV-3, SKOV3 cell line, wild-type B-Raf, read-out: Inhibitory Concentration (IC50) SKOV3 (wild-type B-Raf).
Setting [8] is: COLO-829, COLO829 human melanoma cell line, B-Raf V600E, read-out: Inhibitory Concentration (IC50) COLO829 (B-Raf V600E).

Like-named read-outs stand apart in the source and are kept apart here. A value given as a limit tells only on which side of the number the result lay.

Chain of ERK2 (P28482 whole entry, species assumed): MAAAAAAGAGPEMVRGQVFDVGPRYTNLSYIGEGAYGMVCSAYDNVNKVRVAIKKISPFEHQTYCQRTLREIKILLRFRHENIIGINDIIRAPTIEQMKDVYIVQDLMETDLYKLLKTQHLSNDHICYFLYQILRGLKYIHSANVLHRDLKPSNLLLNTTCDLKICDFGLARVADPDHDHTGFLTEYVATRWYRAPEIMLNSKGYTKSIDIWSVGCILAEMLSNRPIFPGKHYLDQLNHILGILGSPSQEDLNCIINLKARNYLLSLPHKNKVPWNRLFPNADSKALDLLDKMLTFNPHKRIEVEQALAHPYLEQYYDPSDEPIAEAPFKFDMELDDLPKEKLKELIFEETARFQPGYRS

Usually Ki stands for the dissociation constant of the complex between target and ligand, obtained from inhibition or displacement. The kinact is the maximal first-order rate at which the target is inactivated. For `C[C@H]1C/C=C\C(=O)[C@@H](O)[C@@H](O)COCc2cc(O)cc(O)c2C(=O)O1` [Compound III], the inhibition constant (Ki) in test [1] (read-out: ERK2 Binding Ki) came to 3100 ± 400 nM. Moreover, the inactivation rate constant (kinact) in test [1] came out at 9.1e-05 s⁻¹. The IC50 in test [2] (setting [6]) was found to be 860 nM; in test [3] (setting [7]) it was 74 µM; in test [4] (setting [8]) it was 360 nM.
`COc1cc(O)c2c(c1)[C@H]1O[C@@H]1C[C@H](O)[C@H](O)C(=O)/C=C\C[C@H](C)OC2=O` [Hypothemycin, hypothemycin] yielded an inhibitory constant (Ki) in test [1] of 2700 ± 800 nM. In test [1], the kinact was 0.005 ± 2e-06 s⁻¹. The IC50 in test [2] (Homo sapiens, HT-29, read-out: Inhibitory Concentration (IC50) HT29 (B-Raf V600E)) was 260 nM; in test [3] (SK-OV-3, read-out: Inhibitory Concentration (IC50) SKOV3 (wild-type B-Raf)), 4 µM; in test [4] (Homo sapiens, COLO-829, read-out: Inhibitory Concentration (IC50) COLO829 (B-Raf V600E)), 46 nM. The “number of kinases without active site cysteine inhibited” value in test [5] (of 105 kinases not having the active site cysteine) was 2. The “number of active site cysteine kinases inhibited” value in test [5] (of the 19 kinases having the active site cysteine) is recorded as 18. In addition, the “number of kinases inhibited” value in test [5] (of the whole panel of 124 kinases) is reported as 20.
Regarding `C[C@@H]1/C=C\C(=O)[C@@H](O)[C@@H](O)COCc2cc(O)cc(O)c2C(=O)O[C@H]1C` [IV], the IC50 in test [2] (setting [6]) is 1420 nM; in test [3] (setting [7]), greater than 100 µM; in test [4] (setting [8]), 310 nM.
